Data taken from patent US20130296417A1, “Theaflavin Compositions, Production, and Method to Control Physiological Disorders in Mammals” (JANGSU DEHE BIO-TECH CO., LTD., priority 2010, published 2013).

System: Madin-Darby canine kidney (MDCK) cells
Test: Cytotoxicity (CC50) in MDCK cells (Example II)

O=C(O[C@@H]1Cc2c(O)cc(O)cc2O[C@@H]1c1cc(O)c(O)c(O)c1)c1cc(O)c(O)c(O)c1 [EGCG, (−)-epigallocatechin-3-gallate]
CC50: >100 µg/mL
